The values that follow come from patent US4621083A, “PAF-antagonistic diazepines” (Boehringer Ingelheim KG, priority 1984, dated 1986).

In the experiment the test system is PAF-induced aggregation of human thrombocytes. Kind of experiment: Inhibition of PAF-induced blood platelet aggregation in vitro. The note with it: Homo sapiens, read-out: PAF-Antag. IC50. The experiment is classed as cell-based. The protocol:
1. Inhibition of blood platelet aggregation in vitro
The PAF-induced aggregation of human thrombocytes in vitro is used to determine PAF-antagonistic activity. To obtain thrombocyte-rich plasma (TRP), blood is taken from an uncongested vein using a plastic syringe containing 3.8% sodium citrate solution. The ratio of sodium citrate solution to blood is 1:9. After careful mixing the citrate blood is centrifuged for 20 minutes at 150 g (1200 rpm). The thrombocyte aggregation is measured using the method devised by Born and Cross (G. V. R. Born and M. J. Cross, J. Physiol. 168, 178 (1963)), by adding an aggregation initiator (PAF) to the TRP with constant stirring.
The test substance is added 2 to 3 minutes before aggregation is initiated in a volume of 10 ul. Either distilled water, ethanol and/or dimethylsulphoxide (each in suitable concentrations) can be used as solvent.
Control mixtures contain corresponding volumes of these solvents. After the initial absorption has been recorded (2 to 3 minutes) aggregation is induced with PAF (5×10^-8 M).
The maximum of the first aggregation wave is used to assess the effects of the substance. The PAF-induced maximum absorption rate (=maximum aggregation×100%) is tested at the same time in a parallel mixture (=control mixture in one of the channels of the two-channel aggregometer) as each test mixture (second channel) and is used as a 100% value.
The aggregation value attained under the effect of the test substance is given as a percentage of the control value, i.e. less than 100% in the case of an inhibition of aggregation and over 100% in the case of an increase.
Each test substance is investigated at concentrations of from 10^-3 to 10^-8 M with a random sampling of n=4 with regard to an inhibitory effect on the PAF-induced thrombocyte aggregation. Then a concentration-activity curve is drawn up using 3 concentrations and the IC50 is determined (concentration giving a 50% inhibition of aggregation).
As for `Clc1ccc2c(c1)C(c1ccccc1Cl)=NCc1nnc(Br)n1-2` [compound 57], the IC50 worked out at 25 µM.
Regarding `Cc1nnc2n1-c1ccsc1C(c1ccccc1Cl)=NC2` [compound 24], the half-maximal inhibitory concentration (IC50) was 7.6 µM.
Next, `Cc1cc2c(cc1C)-n1c(C)nnc1CNC2c1ccccc1Cl` (stereo not shown) [compound 101]: 342 µM; `COc1ccc2c(c1)C(c1ccccc1Cl)=NCc1nnc(C)n1-2` [compound 43]: 33.3 µM.

Broadly, the IC50 is the concentration needed to halve the response being measured.
